Measured values published in US20230346853A1, “Probiotic Lyophilizate Reactivation Composition for Improving Intestinal Survivability and Adhesion of Probiotics” (COSMAX NBT, INC., priority 2021, published 2023).
Read-outs that look alike come from different tables or passages of the source.

What was measured:
[1] = system: Lactobacillus plantarum HAC03; assay: Zeta potential of lyophilized probiotics mixed with single ingredients (screening); format: cell-based; settings: 0.1 M ingredient, rehydrated 1 min, pH 2.5
Description: In this experimental example, Lactobacillus plantarum HAC03 (accession number: KCTC13242BP, the Korean Research Institute of Bioscience and Biotechnology) (hereinafter referred to as “HAC03”), which was described in Korean Patent Application No. 10-2017-0051574, was used as a probiotic strain.
Afterwards, 2 mL of pH 2.5 distilled water was added to each sample, the pH was re-adjusted using HCl 0.1 N, and 800 μl of the calibrated sample was loaded in DTS1080 cuvettes. The electrophoretic mobility was measured by the Zetaizer Nano ZEN 3600 (Malvern Panalytica, UK) after 2 minutes of equilibration and the Smoluchowski equation was used to convert the data into zetapotential values.
In this experiment, zeta potentials were measured at a pH of 2.5 in consideration of the highly acidic stomach environment, which is one of the initial hurdles that drastically reduce the survivability of the bacteria.

[2] = system: Lactobacillus plantarum HAC03; assay: in vitro Simulated Stomach Duodenum Passage (SSDP) probiotic survivability, lyophilized HAC03; format: cell-based; settings: for viability at 100000 µM: Lactiplantibacillus plantarum; for intestinal survivability (acid resistance and bile resistance) in words: compared to fresh bacteria / distilled water
Description: The HAC03 strain was mixed with each of the single compositions and 1 mL of distilled water for 1 min. The compositions were formulated to have a final concentration of 0.1 M when dissolved in 1 ml of distilled water. Thereafter, 9 mL of distilled water adjusted to have a pH of 2.5 was added to each mixture. The pH was readjusted back to 2.5 in case of an increased pH due to the nature of some of the single ingredients (in order to not affect the survival of the probiotics). After adjusting the pH to 2.5, the tubes were incubated at 37° C. for 1 hour to apply the low-pH gastric stress condition. […] During the gastrointestinal tract assay, the samples were taken immediately, 1 hour, and […] after the incubation (t=0, 1, and 2). The probiotic survivability of each sample after gastric stress and bile stress was calculated by counting viable colonies.

[3] = HAC03, 1 h, pH 2.5, read-out: Stomach Survivability (%)
[4] = HAC03, 2 h, pH 6, read-out: Duodenum Survivability (%)
[5] = Table 1, 0.1 M ingredient, pH 2.5, 37° C., 1 hour
[6] = Table 1, 0.1 M ingredient, then bile salts (10% ox gall) and pH 6.0 synthetic duodenum juice, 2 hours
[7] = HAC03, Table 1, 0.1 M ingredient, pH 2.5, 37° C., 1 hour, read-out: Stomach Survivability (%)
[8] = HAC03, Table 1, 0.1 M ingredient, then bile salts (10% ox gall) and pH 6.0 synthetic duodenum juice, 2 hours, read-out: Duodenum Survivability (%)

Row | SMILES | zeta potential of lyophilized HAC03 mixed with the ingredient (sign, FIG. 1) [1] | viability at 100000 µM [2, 3] | viability at 100000 µM [2, 4] | Stomach log CFU/mL [2, 5] | Duodenum log CFU/mL [2, 6] | intestinal survivability (acid resistance and bile resistance) in words ([2]; Table 1) | viability at 100000 µM [2, 7] | viability at 100000 µM [2, 8]
1 | N=C(N)NCCC[C@H](N)C(=O)O [L-Arginine, L-arginine] | positive zeta potentials | 0.13% | 0.08% | 4.00 ± 0.00 log CFU/mL | 3.73 ± 0.34 log CFU/mL | intestinal survivability far inferior to that of distilled water | – | –
2 | O=C1O[C@H]([C@@H](O)CO)C(O)=C1O [L-Ascorbic acid, L-ascorbic acid] | positive zeta potentials | 0.4% | 0.1% | 4.08 ± 0.15 log CFU/mL | 3.49 ± 0.00 log CFU/mL | intestinal survivability far inferior to that of distilled water | – | –
3 | N[C@@H](CC(=O)O)C(=O)O [L-Aspartic acid, L-aspartic acid] | positive zeta potentials | – | – | 7.06 ± 0.56 log CFU/mL | 5.80 ± 0.64 log CFU/mL | intestinal survivability far inferior to that of distilled water | 29.9% | 1.86%
4 | N[C@@H](Cc1c[nH]cn1)C(=O)O [L-Histidine, L-histidine] | negative zeta potentials | – | – | 7.83 ± 0.11 log CFU/mL | 7.52 ± 0.08 log CFU/mL | increased in acid resistance and bile resistance | 56.6% | 27.2%
5 | NCCC[C@H](N)C(=O)O [L-Ornithine, L-ornithine] | negative zeta potentials | – | – | 7.75 ± 0.02 log CFU/mL | 7.57 ± 0.03 log CFU/mL | – | – | –
6 | N[C@@H](Cc1ccc(O)cc1)C(=O)O [L-Tyrosine, L-tyrosine] | negative zeta potentials | – | – | 7.98 ± 0.04 log CFU/mL | 7.65 ± 0.01 log CFU/mL | increased in acid resistance and bile resistance | 73.5% | 33.9%
7 | O=C(O)CC(O)C(=O)O (stereo not drawn) [Malic acid, malic acid] | positive zeta potentials | – | – | <3.99 ± 0.00 log CFU/mL | <3.49 ± 0.00 log CFU/mL | intestinal survivability far inferior to that of distilled water | < 0.01% | < 0.003%
